The values below are quoted from earlier work in US11052155B2, “Conjugates of CC-1065 analogs and bifunctional linkers” (priority 2010, dated 2021).

The conditions of the series: in vivo.

With `COc1c(O)c2c(c3cc(C(=O)N4CCc5c4c(O)c(OC)c4[nH]c(C(=O)N6CC7CC78C6=CC(=O)c6[nH]cc(C)c68)cc54)[nH]c13)CCN2C(N)=O` (stereo not shown) [CC-1065], the hepatotoxicity entry is “serious delayed hepatotoxicity”.
